Measurements reported in US20230053540A1, “TREATMENT OF LIVER INJURY” (Massachusetts Institute of Technology, priority 2019, published 2023).

System: hepatocytes
Experiment: Seq-Well scRNA-Seq of hepatocytes after APAP overdose (signature scores, DEG vs untreated)
Assay type: in vivo, mouse
Details: APAP vs UT, composite DEG

Structure (SMILES): CC(=O)Nc1ccc(O)cc1 [APAP, acetaminophen]
- Fam134b logFC: 0.8936
- Fam214a logFC: −0.2658
- Fcgrt logFC: −0.2693
- Fdps logFC: −0.2663
- Fitm1 logFC: −0.3242
- Fkbp4 logFC: −0.3534
- Fmo5 logFC: 0.2862
- Fn1 logFC: 0.6996
- Fpgs logFC: −0.3494
- Ftl1 logFC: 1
- Furin logFC: 0.4056
- Fus logFC: 0.3393
- Fxyd5 logFC: 0.2743
- G0s2 logFC: 0.3465
- G6pc logFC: −0.9601
- Gabarap logFC: −0.4425
- Gabarapl1 logFC: 0.2607
- Gadd45g logFC: −0.614
- Gadd45gip1 logFC: −0.3041
- Gc logFC: 0.2598
- Gcdh logFC: −0.3003
- Gch1 logFC: −0.2825
- Gcnt2 logFC: 0.5375
- Gfra1 logFC: 0.3864
- Ggnbp2 logFC: 0.2726
- Ghr logFC: −0.3648
- Gjb1 logFC: −0.3166
- Glo1 logFC: −0.4066
- Gltscr2 logFC: 0.2553
- Glud1 logFC: 0.451
- Glyctk logFC: −0.2977
- Gm2a logFC: 0.3831
- Gm2788 logFC: −0.2831
- Gm4951 logFC: −0.3221
- Gm6484 logFC: 0.3043
- Gm10800 logFC: 0.5626
- Gm10801 logFC: 0.2659
- Gm23935 logFC: 1
- Gm24245 logFC: 0.5465
- Gm24270 logFC: 0.268
- Gne logFC: −0.4251
- Gnmt logFC: −0.4604
- Golga4 logFC: 0.3521
- Gpam logFC: 0.2504
- Gpld1 logFC: 0.3281
- Grhpr logFC: −0.3531
- Grlf1 logFC: 0.295
- Grn logFC: 0.5408
- Gsk3b logFC: 0.4065
- Gsta1 logFC: 0.4076
- Gsta3 logFC: −0.8063
- Gstk1 logFC: −0.2828
- Gstm4 logFC: −0.3809
- Gstp1 logFC: −0.8558
- Gstt3 logFC: 0.3507
- Gtpbp4 logFC: 0.4822
- Gyk logFC: 0.4024
- Gys2 logFC: 0.2744
- H6pd logFC: 0.3437
- Hadh logFC: 0.2888
- Hagh logFC: −0.674
- Hamp logFC: −1.021
- Hba-a1 logFC: 0.735
- Hba-a2 logFC: 0.5535
- Hbb-bt logFC: 1.43
- Hdac11 logFC: −0.3368
- Hdlbp logFC: 0.5651
- Herpud1 logFC: 0.5136
- Hgd logFC: −0.7586
- Hgfac logFC: 0.2522
- Hibch logFC: −0.3271
- Hint1 logFC: −0.6739
- Hipk3 logFC: 0.3394
- Hist1h1c logFC: −0.3009
- Hmgcl logFC: 0.4738
- Hmgcr logFC: 0.4167
- Hmgcs1 logFC: −0.3491
- Hnf4a logFC: 0.8791
- Hnrnpdl logFC: 0.398
- Hp logFC: 0.4313
- Hsd3b3 logFC: −0.7795
- Hsd3b5 logFC: −1.07
- Hsd3b7 logFC: −1.006
- Hsd17b4 logFC: 0.2532
- Hsd17b10 logFC: −0.3772
- Hsd17b13 logFC: 0.6808
- Hsp90ab1 logFC: 0.3227
- Hsp90b1 logFC: 0.5342
- Hspa5 logFC: 0.6105
- Hspa8 logFC: 0.4204
- Huwe1 logFC: 0.3879
- Hyou1 logFC: 0.8465
- Id3 logFC: −0.3511
- Ide logFC: 0.2517
- Ifrd1 logFC: 0.4904
- Igf1 logFC: 0.2958
- Iigp1 logFC: 0.7688
- Il1b logFC: 0.7429
- Il1r1 logFC: 1.245
- Il4ra logFC: 0.2574
- Il6ra logFC: 0.3044
- Ildr2 logFC: 0.2676
- Insig2 logFC: 0.67
- Ipo5 logFC: 0.2687
- Iqgap1 logFC: 0.4554
- Iqgap2 logFC: 0.2547
- Ireb2 logFC: 0.2657
- Itih3 logFC: 0.5462
- Itih4 logFC: 0.5251
- Jhdm1d logFC: 0.3041
- Kdelr2 logFC: 0.3977
- Khk logFC: −0.4915
- Kif1b logFC: 0.3718
- Kif5b logFC: 0.5012
- Kif21a logFC: 0.4042
- Klf3 logFC: 0.2674
- Klf6 logFC: 0.7324
- Klf9 logFC: 0.2934
- Kng1 logFC: 0.2658
- Krt8 logFC: 1.196
- Krt18 logFC: 1.258
- Lamp1 logFC: 0.2683
- Lap3 logFC: −0.3644
- Larp4b logFC: 0.3421
- Lasp1 logFC: 0.253
- Lcat logFC: 0.4361
- Lcp1 logFC: 0.484
- Lgals9 logFC: −0.27
- Lifr logFC: −0.6262
- Lipa logFC: 0.4183
- Litaf logFC: 0.3944
- Lpgat1 logFC: 0.5952
- Lpin2 logFC: 0.6867
- Lrg1 logFC: 0.4908
- Lrrc58 logFC: 1.001
- Lrrfip2 logFC: 0.3731
- Lsmd1 logFC: −0.3131
- Lyz2 logFC: 0.7322
- Macf1 logFC: 0.4042
- Magt1 logFC: 0.2633
- Man2a1 logFC: 0.4971
- Maob logFC: 0.3204
- Map3k5 logFC: 0.3347
- Mapk6 logFC: 0.2568
- Mat2a logFC: 0.4826
- Mbl2 logFC: −0.3465
- Mbnl1 logFC: 0.4513
- Mcee logFC: −0.3199
- Mcl1 logFC: 0.5709
- Mdh1 logFC: −0.3077
- Mdm2 logFC: 0.3283
- Med13 logFC: 0.2949
- Met logFC: 0.2883
- Metap2 logFC: 0.3686
- Mettl7a1 logFC: −0.3221
- Mettl7b logFC: −0.4527
- Mettl20 logFC: −0.3314
- Mgll logFC: 0.3339
- Mgst1 logFC: −1.06
- Mia3 logFC: 0.3646
- Mien1 logFC: −0.3704
- Mki67ip logFC: 0.3184
- Mlycd logFC: 0.313
- Mmp8 logFC: 0.359
- Mocs2 logFC: −0.3467
- Mpeg1 logFC: 0.4935
- Mrap logFC: 0.8841
- Mrc1 logFC: 0.3404
- Mrp63 logFC: −0.4422
- Mrpl12 logFC: −0.3082
- Mrpl33 logFC: −0.2654
- Mrps18c logFC: −0.3663
- Mrps24 logFC: −0.3904
- Mtdh logFC: 0.3047
- Mthfd2 logFC: 0.2624
- Mtss1 logFC: 0.2876
- Mttp logFC: 0.3115
- Mtus1 logFC: 0.3621
- Mup1 logFC: 1
- Mup4 logFC: −1.087
- Mup8 logFC: −0.7958
- Mup13 logFC: −0.7757
- Mup14 logFC: −0.7608
- Mup20 logFC: −0.4762
- Mxd1 logFC: 0.2978
- Mybbp1a logFC: 0.4312
- Myh9 logFC: 1.16
- Myl12a logFC: 0.3908
- Nadk2 logFC: 0.2579
- Naprt1 logFC: −0.3381
- Narf logFC: 0.2629
- Nars logFC: 0.4378
- Ncl logFC: 0.4845
- Ndufa1 logFC: −0.3645
- Ndufa2 logFC: −0.3965
- Ndufa3 logFC: −0.4116
- Ndufa4 logFC: −0.6831
- Ndufb3 logFC: −0.3272
- Ndufb8 logFC: −0.3481
- Ndufb10 logFC: −0.3004
- Ndufc1 logFC: −0.3444
- Ndufc2 logFC: −0.4253
